Assay results from paper PMC3880798 (Clinical cancer research : an official journal of the …, 2013).

Assays:
[1] = Phase I dose escalation: safety, tolerability, DLT and MTD
[2] = in vivo
c-Kit = settings: intact cellular systems; cited from earlier work
[3] = Plasma pharmacokinetics of OSI-930; assay type: in vivo, human; settings: for AUC: AUCtau

O=C(Nc1ccc(OC(F)(F)F)cc1)c1sccc1NCc1ccnc2ccccc12 [OSI-930]
Treatment-related AEs (number): Abdominal pain, G1–2 ([1]; 1,600 mg once a day (n = 3)): 1
Treatment-related AEs (number): Abdominal pain, G3 ([1]; 1,600 mg once a day (n = 3)): 0
Treatment-related AEs (number): Anorexia, G1–2 ([1]; 1,600 mg once a day (n = 3)): 2
Treatment-related AEs (number): Anorexia, G3 ([1]; 1,600 mg once a day (n = 3)): 0
Treatment-related AEs (number): Diarrhea, G1–2 ([1]; 1,600 mg once a day (n = 3)): 0
Treatment-related AEs (number): Diarrhea, G3 ([1]; 1,600 mg once a day (n = 3)): 0
Treatment-related AEs (number): Dry skin, G1–2 ([1]; 1,600 mg once a day (n = 3)): 0
Treatment-related AEs (number): Dry skin, G3 ([1]; 1,600 mg once a day (n = 3)): 0
Treatment-related AEs (number): Dyspepsia, G1–2 ([1]; 1,600 mg once a day (n = 3)): 0
Treatment-related AEs (number): Dyspepsia, G3 ([1]; 1,600 mg once a day (n = 3)): 0
Treatment-related AEs (number): Fatigue, G1–2 ([1]; 1,600 mg once a day (n = 3)): 1
Treatment-related AEs (number): Fatigue, G3 ([1]; 1,600 mg once a day (n = 3)): 0
Treatment-related AEs (number): Flatulence, G1–2 ([1]; 1,600 mg once a day (n = 3)): 0
Treatment-related AEs (number): Flatulence, G3 ([1]; 1,600 mg once a day (n = 3)): 0
Treatment-related AEs (number): Hair color changes, G1–2 ([1]; 1,600 mg once a day (n = 3)): 0
Treatment-related AEs (number): Hair color changes, G3 ([1]; 1,600 mg once a day (n = 3)): 0
Treatment-related AEs (number): Headache, G1–2 ([1]; 1,600 mg once a day (n = 3)): 0
Treatment-related AEs (number): Headache, G3 ([1]; 1,600 mg once a day (n = 3)): 0
Treatment-related AEs (number): Hypertension, G1–2 ([1]; 1,600 mg once a day (n = 3)): 0
Treatment-related AEs (number): Hypertension, G3 ([1]; 1,600 mg once a day (n = 3)): 0
Treatment-related AEs (number): Muscle spasms, G1–2 ([1]; 1,600 mg once a day (n = 3)): 0
Treatment-related AEs (number): Muscle spasms, G3 ([1]; 1,600 mg once a day (n = 3)): 0
Treatment-related AEs (number): Myalgia, G1–2 ([1]; 1,600 mg once a day (n = 3)): 0
Treatment-related AEs (number): Myalgia, G3 ([1]; 1,600 mg once a day (n = 3)): 0
Treatment-related AEs (number): Nausea, G1–2 ([1]; 1,600 mg once a day (n = 3)): 1
Treatment-related AEs (number): Nausea, G3 ([1]; 1,600 mg once a day (n = 3)): 0
Treatment-related AEs (number): Palmar-plantar erythema, G1–2 ([1]; 1,600 mg once a day (n = 3)): 0
Treatment-related AEs (number): Palmar-plantar erythema, G3 ([1]; 1,600 mg once a day (n = 3)): 0
Treatment-related AEs (number): Vomiting, G1–2 ([1]; 1,600 mg once a day (n = 3)): 0
Treatment-related AEs (number): Vomiting, G3 ([1]; 1,600 mg once a day (n = 3)): 0
DLTs observed ([1]; once a day dosing schedule, 50 to 1,600 mg): no DLTs
Treatment-related deaths ([1]; twice a day cohorts): no treatment-related deaths
Cases of grade 2 proteinuria ([2]; human): 1 case
Grade 3 hypertension (number) ([2]; human): 1
Patients requiring a dose modification ([2]; human): 33 patients
Patients who developed grade 1 to 2 PPE ([2]; human): 15%
Patients with adverse events considered related to OSI-930 ([2]; human): 58%
Patients with anorexia (reported adverse events) ([2]; human): 6
Patients with at least 1 grade 3 adverse event of any cause ([2]; human): 50%
Patients with fatigue (reported adverse events) ([2]; human): 8
Patients with grade 1 to 2 drug-related fatigue ([2]; human): 3 patients
Patients with grade 1 to 2 drug-related nausea and anorexia ([2]; human): 2 patients
Patients with grade 3 PPE ([2]; human): 1 patient
Patients with nausea (reported adverse events) ([2]; human): 5
Patients with treatment discontinued for toxicity ([2]; human): 1 patient
Treatment-related adverse events greater than grade 2 ([2]; human): no treatment-related adverse events greater than grade 2
Treatment-related fatigue ([2]; human): 50%
Treatment-related grade 3 fatigue ([2]; human): 6%
Treatment-related grade 3 hypertension ([2]; human): 6%
Treatment-related grade 3 nausea ([2]; human): 6%
Treatment-related grade 3 skin toxicity ([2]; human): 6%
Patients with grade 1 to 2 drug-related skin and subcutaneous disorders ([2]; human, sc): 3 patients
Reports of mucositis [2]: no reports of mucositis
Potency for wild-type versus mutant c-Kit (c-Kit): equal potencies
Rate and extent of absorption, sieved (screened) vs micronized capsules ([3]; 400 mg twice a day cohort, 3 vs 4 patients, data not shown): similar
Dose proportionality of exposure ([3]; 400 and 500 mg twice a day): dose proportional
Dose proportionality of exposure ([3]; between 500 and 600 mg twice a day): greater than dose proportional
AUC ([3]; human, plasma, oral, 50 mg, 50 mg once a day (n = 1), day 22, steady state): 2590 ng·h/mL
Cmax ([3]; human, plasma, oral, 50 mg, Cmax, 50 mg once a day (n = 1), day 22, steady state): 188 ng/mL
concentration at 22 day ([3]; human, plasma, oral, 50 mg, Cmin, 50 mg once a day (n = 1), day 22, steady state): 69.3 ng/mL
half-life ([3]; human, plasma, oral, 50 mg, T1/2, 50 mg once a day (n = 1), day 22, steady state): 12.6 h
Tmax ([3]; human, plasma, oral, 50 mg, Tmax, 50 mg once a day (n = 1), day 22, steady state): 6 h
AUC ([3]; human, plasma, oral, 100 mg, 100 mg once a day (n = 1), day 22, steady state): 2490 ng·h/mL
